Assay results as given in US4046910A, “Dosage schedule” (The Upjohn Company, priority 1976, dated 1977).
Structures can show the parent of a compound that is named as a salt.

What was measured:
[1] = tested on: mediators of anaphylaxis; conditions: cited from earlier work
[2] = tested on: allergic manifestations caused by antigen-antibody interaction; conditions: tris(hydroxymethyl)aminomethane salts; U.S. Ser. No. 233,772 and 261,524; cited from earlier work
[3] = tested on: rat passive cutaneous anaphylaxis; assay: rat passive cutaneous anaphylaxis (PCA) test; format: in vivo, rat (female Sprague-Dawley); design: key to Spot Score: total detectable spots divided by number of animals; conditions: for % Inhibition in Rat PCA: 48 hour sensitization
Description: The compound under review is first tested in the rat passive cutaneous anaphylaxis test system. This test is employed to determine if the compound does inhibit allergic manifestations. A DSCG biologue will inhibit allergic manifestations. The anti-allergy activity of DSCG biologues vary.
Female Sprague-Dawley 250 gm. rats are skin-sensitized with rat anti-ovalbumin homocytotropic antibody that is heat labile and has a passive cutaneous anaphylaxis titer of (1:128). After a 72-hour latency period, the animals are challenged i.v. with a 4 mg. ovalbumin (OA) + 5 mg. Evans blue dye. Thirty minutes later the extravascular bluing that results from antigen antibody combination at the skin site is read. Antibody dilutions are used such that in control animals a 4 mm spot in the lowest detectable spot, and 4 or 5 lower dilutions are used to give a range of antibody in each animal. Four to five animals are used for each variable in the experiment. Percent inhibition of the PCA assay is calculated by comparing the spot scores of DSCG treated rats with the spot scores of control rats. The spot score is the total number of detectable spots over the number of animals.
DSCG Priming Treatment: Passively sensitized rats are injected i.v. 2.0 hours before antigen challenge i.v. Two hours after an i.v. priming dose of 10 mg./kg. DSCG, the rats are challenged with antigen alone.
The time course of the effective life of DSCG in rats is shown in Table I. DSCG was administered i.p. and was followed by i.v. challenge with 4 mg. ovalbumin and 5 mg. of Evans Blue. Spot score was calculated 30 minutes later from a total of four animals for each time point.
The animals are rested 2 hours between primary i.v. DSCG injection and i.v. antigen challenge, including secondary DSCG dosing. In view of Table I, this time period is of such a length that the effect from the initial dose of DSCG is not a significant factor.
The effect of a time lag between priming doses and secondary doses with regard to the drug sparing effect and the responsiveness of the treated mammal to further treatment with DSCG or a DSCG biologue is shown in Table III. Rats were injected once daily with 10 mg./kg. DSCG for three days. Control rats were also injected with 1.0 ml. of saline at the same time. Twenty and 48 hours after the last dose of DSCG in the three dose series all rats were injected with DSCG. 4 mg. ovalbumin, and 5 mg. of Evans Blue dye.
Th sparing effect using a DSCG biologue, the tris(hydroxymethyl)aminomethane salt of 10-chloro-1,4,6,9-tetrahydro-4,6-dioxopyrido[3,2-g]quinoline-2,8-dicarboxylic acid, referred to as Compound 10 Cl in this Example, is shown in the rat PCA of Table IV. When using this compound in a priming situation, 2.0 mg./kg., 1.0 mg./kg., 0.025 mg./kg. and 0.01 mg./kg. give inhibitions of 93, 86, 44 and 0% respectively. The data of Table IV are obtained in the usual manner except that a 48 hour instead of a 72 hour sensitization period was used.

[4] = man; cited from earlier work
[5] = tested on: allergic and anaphylactic conditions; conditions: cited from earlier work
[6] = 10 mg./kg. i.p., 5 min before i.v. challenge
[7] = 10 mg./kg. i.p., 7 min before i.v. challenge
[8] = 10 mg./kg. i.p., 10 min before i.v. challenge
[9] = 10 mg./kg. i.p., 15 min before i.v. challenge
[10] = 10 mg./kg. i.p., 18 min before i.v. challenge
[11] = 10 mg./kg. i.p., 20 min before i.v. challenge
[12] = 10 mg./kg. i.p., 25 min before i.v. challenge
[13] = 10 mg./kg. i.p., 30 min before i.v. challenge
[14] = 10 mg./kg. i.p., 60 min before i.v. challenge

CCCCC[C@H](O)/C=C/[C@H]1[C@H](O)CC(=O)[C@@H]1C/C=C\CCCC(=O)O [Prostaglandin E2]
response in the DSCG biologue tests [1]: respond appropriately to some of the tests but not all of them

CCCCC[C@H](O)/C=C/[C@H]1[C@H](O)CC(=O)[C@@H]1CCCCCCC(=O)O [Prostaglandin E1]
response in the DSCG biologue tests [1]: respond appropriately to some of the tests but not all of them

Cc1c2[nH]c(C(=O)O)cc(=O)c2cc2c(=O)cc(C(=O)O)[nH]c12 [1,4,6,9-tetrahydro-10-methyl-4,6-dioxopyrido[3,2-g]quinoline-2,8-dicarboxylic acid]
ability to prophylactically protect against allergic manifestations [2]: have this ability to prophylactically protect against allergic manifestations

O=C(O)c1cc(=O)c2cc3c(=O)cc(C(=O)O)[nH]c3c(Cl)c2[nH]1 [Compound 10 Cl, tris(hydroxymethyl)aminomethane salt of 10-chloro-1,4,6,9-tetrahydro-4,6-dioxopyrido[3,2-g]quinoline-2,8-dicarboxylic acid]
sparing ([3]; 0.01 mg./kg. maintenance dose, primed with 2.0 or 1.0 mg./kg.): sparing is seen | inhibition in a priming situation ([3]; 0.01 mg./kg. priming): 0% | inhibition in a priming situation ([3]; 0.025 mg./kg. priming): 44% | inhibition in a priming situation ([3]; 1.0 mg./kg. priming): 86% | inhibition in a priming situation ([3]; 2.0 mg./kg. priming): 93% | % Inhibition in Rat PCA ([3]; priming 0.01 mg./kg., secondary 0.01 mg./kg.): 6% | % Inhibition in Rat PCA ([3]; priming 0.01 mg./kg., secondary 0.025 mg./kg.): 44% | % Inhibition in Rat PCA ([3]; priming 0.01 mg./kg., secondary 1.0 mg./kg.): 71% | % Inhibition in Rat PCA ([3]; priming 0.01 mg./kg., secondary 2.0 mg./kg.): 80% | % Inhibition in Rat PCA ([3]; priming 0.025 mg./kg., secondary 0.01 mg./kg.): 6% | % Inhibition in Rat PCA ([3]; priming 0.025 mg./kg., secondary 0.025 mg./kg.): 23% | % Inhibition in Rat PCA ([3]; priming 0.025 mg./kg., secondary 1.0 mg./kg.): 52% | % Inhibition in Rat PCA ([3]; priming 0.025 mg./kg., secondary 2.0 mg./kg.): 62% | % Inhibition in Rat PCA ([3]; priming 1.0 mg./kg., secondary 0.01 mg./kg.): 44% | % Inhibition in Rat PCA ([3]; priming 1.0 mg./kg., secondary 0.025 mg./kg.): 44% | % Inhibition in Rat PCA ([3]; priming 1.0 mg./kg., secondary 1.0 mg./kg.): 44% | % Inhibition in Rat PCA ([3]; priming 1.0 mg./kg., secondary 2.0 mg./kg.): 52% | % Inhibition in Rat PCA ([3]; priming 2.0 mg./kg., secondary 0.01 mg./kg.): 52% | % Inhibition in Rat PCA ([3]; priming 2.0 mg./kg., secondary 0.025 mg./kg.): 33% | % Inhibition in Rat PCA ([3]; priming 2.0 mg./kg., secondary 1.0 mg./kg.): 14% | % Inhibition in Rat PCA ([3]; priming 2.0 mg./kg., secondary 2.0 mg./kg.): 6% | ability to prophylactically protect against allergic manifestations [2]: have this ability to prophylactically protect against allergic manifestations

O=C(O)c1cc(=O)c2c(OCC(O)COc3cccc4oc(C(=O)O)cc(=O)c34)cccc2o1 [DSCG, disodium salt of 1,3-bis(2-carboxychromon-5-yloxy)-2-hydroxypropane]
serum half life [4]: approximately 2 minutes | relief from allergic and anaphylactic conditions ([5]; administered in a prophylactic manner): provides relief from allergic and anaphylactic conditions | inhibition of allergic manifestations on continuing administration ([5]; same dose level, significant number of individuals): lower levels of inhibition which may be clinically ineffective | inhibition given as a priming dose ([3]; 0.1 mg. priming dose): does not provide any inhibition | % Inhibition [3, 6]: 26% | Spot Score [3, 6]: 1.67 | % Inhibition [3, 7]: 26% | Spot Score [3, 7]: 1.67 | % Inhibition [3, 8]: 73% | Spot Score [3, 8]: 0.66 | % Inhibition [3, 9]: 51% | Spot Score [3, 9]: 1.00 | % Inhibition [3, 10]: 44% | Spot Score [3, 10]: 1.25 | % Inhibition [3, 11]: 33% | Spot Score [3, 11]: 1.50 | % Inhibition [3, 12]: 26% | Spot Score [3, 12]: 1.67 | % Inhibition [3, 13]: 11% | Spot Score [3, 13]: 2.0 | % Inhibition [3, 14]: 11% | Spot Score [3, 14]: 2.0 | persistence of inhibiting effect ([3]; 10 mg./kg. i.p., in 30 minutes): most of the inhibiting effect of DSCG has disappeared | inhibitory effect in rat PCA after priming dose alone ([3]; 10 mg./kg. i.v. priming, antigen challenge i.v. 2 hours later): No inhibitory effects are observed | inhibition given as a priming dose ([3]; 10 mg./kg. priming dose): 79% | % Inhibition ([3]; 10 mg./kg., i.v. at challenge): 100% | Spot Score ([3]; 10 mg./kg., i.v. at challenge): 0 | drug sparing effect from the priming dosage ([3]; 20 hours post priming): present at 20 hours post priming | drug sparing effect from the priming dosage ([3]; 48 hours post priming): has disappeared at 48 hours post priming | effect of high priming doses on high secondary doses ([3]; high doses in priming and secondary dose situation): inhibit the action of high doses of DSCG in the secondary dose situation | Inhibition in Rat PCA ([3]; priming 0.1 mg./kg. i.v., secondary DSCG 0.1 mg./kg. with antigen 2 hours later): 2% | Inhibition in Rat PCA ([3]; priming 0.1 mg./kg. i.v., secondary DSCG 1.0 mg./kg. with antigen 2 hours later): 39% | Inhibition in Rat PCA ([3]; priming 0.1 mg./kg. i.v., secondary DSCG 10 mg./kg. with antigen 2 hours later): 79% | Inhibition in Rat PCA ([3]; priming 1.0 mg./kg. i.v., secondary DSCG 0.1 mg./kg. with antigen 2 hours later): 27% | Inhibition in Rat PCA ([3]; priming 1.0 mg./kg. i.v., secondary DSCG 1.0 mg./kg. with antigen 2 hours later): 39% | Inhibition in Rat PCA ([3]; priming 1.0 mg./kg. i.v., secondary DSCG 10 mg./kg. with antigen 2 hours later): 98% | Inhibition in Rat PCA ([3]; priming 10 mg./kg. i.v., secondary DSCG 0.1 mg./kg. with antigen 2 hours later): 39% | Inhibition in Rat PCA ([3]; priming 10 mg./kg. i.v., secondary DSCG 1.0 mg./kg. with antigen 2 hours later): 51% | Inhibition in Rat PCA ([3]; priming 10 mg./kg. i.v., secondary DSCG 10 mg./kg. with antigen 2 hours later, mean percent from 15 animals): 51% | % Inhibition in the Rat PCA ([3]; saline i.v. 3 times, then DSCG dose 0.1): 0% | % Inhibition in the Rat PCA ([3]; saline i.v. 3 times, then DSCG dose 1.0): 11% | % Inhibition in the Rat PCA ([3]; saline i.v. 3 times, then DSCG dose 5.0): 47% | % Inhibition in the Rat PCA ([3]; saline i.v. 3 times, then DSCG dose 10): 82% | % Inhibition in the Rat PCA ([3]; secondary DSCG dose 0, 48 hours after last of three daily 10 mg./kg. DSCG): 0% | % Inhibition in the Rat PCA ([3]; secondary DSCG dose 0.05, 20 hours after last of three daily 10 mg./kg. DSCG): 47% | % Inhibition in the Rat PCA ([3]; secondary DSCG dose 0.05, 48 hours after last of three daily 10 mg./kg. DSCG): 2% | % Inhibition in the Rat PCA ([3]; secondary DSCG dose 0.1, 20 hours after last of three daily 10 mg./kg. DSCG): 52% | % Inhibition in the Rat PCA ([3]; secondary DSCG dose 0.1, 48 hours after last of three daily 10 mg./kg. DSCG): 0% | % Inhibition in the Rat PCA ([3]; secondary DSCG dose 1.0, 20 hours after last of three daily 10 mg./kg. DSCG): 58% | % Inhibition in the Rat PCA ([3]; secondary DSCG dose 5.0, 20 hours after last of three daily 10 mg./kg. DSCG): 20% | % Inhibition in the Rat PCA ([3]; secondary DSCG dose 5.0, 48 hours after last of three daily 10 mg./kg. DSCG): 65% | % Inhibition in the Rat PCA ([3]; secondary DSCG dose 10, 20 hours after last of three daily 10 mg./kg. DSCG): 20% | % Inhibition in the Rat PCA ([3]; secondary DSCG dose 10, 48 hours after last of three daily 10 mg./kg. DSCG): 73%

O=C(O)c1cc(=O)c2cc(-c3ccc4[nH]c(C(=O)O)cc(=O)c4c3)ccc2[nH]1 [tris(hydroxymethyl)aminomethane salt of 1,1',4,4'-tetrahydro-4,4'-dioxo[6,6'-biquinoline]-2,2'-dicarboxylic acid]
ability to prophylactically protect against allergic manifestations [2]: have this ability to prophylactically protect against allergic manifestations
